Source: PubChem BioAssay AID256 (DTP/NCI, 2004)
Several values for one entry are separate records, joined by “and”; a condition that tells them apart may be missing. Equal values may be shown once. Toxic doses and inconclusive results are not listed.

System: CD2F1 mice, L1210 leukemia ip, survival T/C
Assay: NCI In Vivo Anticancer Drug Screen. Data for tumor model L1210 Leukemia (intraperitoneal) in CD2F1 (CDF1) mice
Conditions: higher = longer survival
How it was run: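 Read-out first: treated-group measurement over vehicle-control measurement, expressed as a ratio. Animals bore a transplanted tumor line and were dosed with compound or vehicle.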

[1] = endpoint: mean survival time, dose: 50.0 mg/kg/injection, schedule: Q01DX009 (ip), vehicle: saline with Tween-80
[2] = endpoint: mean survival time, dose: 100.0 mg/kg/injection, schedule: Q01DX009 (ip), vehicle: saline with Tween-80
[3] = endpoint: mean survival time, dose: 100.0 mg/kg/injection, schedule: Q04DX003 (ip), vehicle: saline with Tween-80
[4] = endpoint: mean survival time, dose: 200.0 mg/kg/injection, schedule: Q01DX009 (ip), vehicle: saline with Tween-80
[5] = endpoint: mean survival time, dose: 200.0 mg/kg/injection, schedule: Q04DX003 (ip), vehicle: saline with Tween-80
[6] = endpoint: mean survival time, dose: 400.0 mg/kg/injection, schedule: Q04DX003 (ip), vehicle: saline with Tween-80
[7] = endpoint: mean survival time, dose: 100.0 mg/kg/injection, schedule: Q01DX009 (ip), vehicle: Klucel (hydroxypropylcellulose) (HPC)
[8] = endpoint: mean survival time, dose: 200.0 mg/kg/injection, schedule: Q01DX009 (ip), vehicle: Klucel (hydroxypropylcellulose) (HPC)
[9] = endpoint: mean survival time, dose: 100.0 mg/kg/injection, schedule: Q01DX001 (ip), vehicle: saline with Tween-80
[10] = endpoint: mean survival time, dose: 100.0 mg/kg/injection, schedule: Q04DX002 (ip), vehicle: saline with Tween-80
[11] = endpoint: mean survival time, dose: 200.0 mg/kg/injection, schedule: Q01DX001 (ip), vehicle: saline with Tween-80
[12] = endpoint: mean survival time, dose: 200.0 mg/kg/injection, schedule: Q04DX002 (ip), vehicle: saline with Tween-80
[13] = endpoint: mean survival time, dose: 50.0 mg/kg/injection, schedule: Q04DX003 (ip), vehicle: saline
[14] = endpoint: mean survival time, dose: 400.0 mg/kg/injection, schedule: Q01DX009 (ip), vehicle: saline with Tween-80

SMILES: O=C(NO)c1cccc(O)c1O
- T/C (endpoint: median survival time, dose: 200.0 mg/kg/injection, schedule: Q01DX009 (ip), vehicle: distilled water + Tween-80): 162 % of control
- T/C (endpoint: median survival time, dose: 300.0 mg/kg/injection, schedule: Q01DX009 (ip), vehicle: distilled water + Tween-80): 170 % of control
- T/C (endpoint: median survival time, dose: 450.0 mg/kg/injection, schedule: Q01DX009 (ip), vehicle: distilled water + Tween-80): 104 % of control

SMILES: CCOC(=O)C1=C(C)NC(C)=C(C(=O)OCC)C1c1ccccc1
- T/C [1]: 98 % of control
- T/C (endpoint: mean survival time, dose: 50.0 mg/kg/injection, schedule: Q04DX003 (ip), vehicle: saline with Tween-80): 97 % of control
- T/C [2]: 102 % of control
- T/C [3]: 97 % of control and 100 % of control
- T/C [4]: 102 % of control
- T/C [5]: 90 % of control and 96 % of control
- T/C [6]: 103 % of control

SMILES: O=C(N/N=C/c1ccccc1O)c1ccccc1
- T/C (endpoint: mean survival time, dose: 100.0 mg/kg/injection, schedule: Q01DX001 (ip), vehicle: Klucel (hydroxypropylcellulose) (HPC)): 112 % of control
- T/C [7]: 94 % of control
- T/C (endpoint: mean survival time, dose: 200.0 mg/kg/injection, schedule: Q01DX001 (ip), vehicle: Klucel (hydroxypropylcellulose) (HPC)): 105 % of control
- T/C [8]: 104 % of control
- T/C (endpoint: mean survival time, dose: 400.0 mg/kg/injection, schedule: Q01DX001 (ip), vehicle: Klucel (hydroxypropylcellulose) (HPC)): 95 % of control
- T/C (endpoint: mean survival time, dose: 400.0 mg/kg/injection, schedule: Q01DX009 (ip), vehicle: Klucel (hydroxypropylcellulose) (HPC)): 102 % of control

SMILES: CNC(=O)O/N=C(\CN=[N+]=[N-])C(C)(C)C
- T/C (endpoint: median survival time, dose: 0.25 mg/kg/injection, schedule: Q01DX009 (ip), vehicle: saline): 102 % of control
- T/C (endpoint: median survival time, dose: 0.5 mg/kg/injection, schedule: Q01DX009 (ip), vehicle: saline): 96 % of control
- T/C (endpoint: median survival time, dose: 1.0 mg/kg/injection, schedule: Q01DX009 (ip), vehicle: saline): 103 % of control

SMILES: Oc1ccccc1C=NCC1CCCC[N-]1.Oc1ccccc1C=NCC1CCCC[N-]1.[Ni+2] (configuration not stated)
- T/C (endpoint: mean survival time, dose: 25.0 mg/kg/injection, schedule: Q04DX002 (ip), vehicle: saline with Tween-80): 101 % of control
- T/C (endpoint: mean survival time, dose: 50.0 mg/kg/injection, schedule: Q04DX002 (ip), vehicle: saline with Tween-80): 98 % of control
- T/C [9]: 96 % of control
- T/C [10]: 96 % of control
- T/C (endpoint: mean survival time, dose: 132.0 mg/kg/injection, schedule: Q01DX001 (ip), vehicle: saline with Tween-80): 101 % of control
- T/C [11]: 102 % of control
- T/C [12]: 101 % of control
- T/C (endpoint: mean survival time, dose: 300.0 mg/kg/injection, schedule: Q01DX001 (ip), vehicle: saline with Tween-80): 107 % of control

SMILES: Cc1c(N=O)c(-c2ccccc2)n(O)[n+]1[O-]
- T/C (endpoint: mean survival time, dose: 50.0 mg/kg/injection, schedule: Q01DX009 (ip), vehicle: Klucel (hydroxypropylcellulose) (HPC)): 104 % of control
- T/C [7]: 104 % of control
- T/C [8]: 101 % of control

SMILES: C=C1C[C@@H](O)C[C@@]2(C)C[C@@H]3OC(=O)C(=C)[C@@H]3C[C@H]12
- T/C [2]: 104 % of control
- T/C [4]: 111 % of control

SMILES: CC(=O)OCC(=O)[C@@]12OC(C)(C)O[C@@H]1C[C@H]1[C@@H]3CC(C=O)=C4C=C(OCCCl)CC[C@]4(C)[C@@]3(F)[C@@H](O)C[C@@]12C
- T/C (endpoint: mean survival time, dose: 100.0 mg/kg/injection, schedule: Q04DX003 (ip), vehicle: acetone): 103 % of control
- T/C (endpoint: mean survival time, dose: 200.0 mg/kg/injection, schedule: Q04DX003 (ip), vehicle: acetone): 105 % of control
- T/C (endpoint: mean survival time, dose: 400.0 mg/kg/injection, schedule: Q04DX003 (ip), vehicle: acetone): 102 % of control

SMILES: CC1(C)CC[N+]1(C)C
- T/C (endpoint: mean survival time, dose: 12.5 mg/kg/injection, schedule: Q04DX003 (ip), vehicle: saline): 96 % of control
- T/C (endpoint: mean survival time, dose: 25.0 mg/kg/injection, schedule: Q04DX003 (ip), vehicle: saline): 102 % of control
- T/C [13]: 97 % of control

SMILES: CCCC(CCC)=NCCN=C(CCC)CCC
- T/C (endpoint: mean survival time, dose: 100.0 mg/kg/injection, schedule: Q04DX003 (ip), vehicle: saline sonified): 97 % of control
- T/C (endpoint: mean survival time, dose: 200.0 mg/kg/injection, schedule: Q04DX003 (ip), vehicle: saline sonified): 97 % of control
- T/C (endpoint: mean survival time, dose: 400.0 mg/kg/injection, schedule: Q04DX003 (ip), vehicle: saline sonified): 97 % of control

SMILES: NNC(=O)c1ccc(N)cc1
- T/C (endpoint: mean survival time, dose: 100.0 mg/kg/injection, schedule: Q04DX003 (ip), vehicle: Klucel (hydroxypropylcellulose) (HPC)): 95 % of control

SMILES: O=S1(=O)CCC2CCCCC2C1 (configuration not stated)
- T/C (endpoint: mean survival time, dose: 12.5 mg/kg/injection, schedule: Q04DX003 (ip), vehicle: saline with Tween-80): 103 % of control
- T/C (endpoint: mean survival time, dose: 25.0 mg/kg/injection, schedule: Q04DX003 (ip), vehicle: saline with Tween-80): 100 % of control

SMILES: O=S(=O)(CCBr)CCBr
- T/C [2]: 95 % of control
- T/C [3]: 109 % of control
- T/C [4]: 86 % of control
- T/C [5]: 107 % of control
- T/C [14]: 100 % of control
- T/C [6]: 88 % of control

SMILES: c1ccc(C2=C(c3ccccc3)OCCO2)cc1
- T/C [9]: 110 % of control
- T/C [11]: 89 % of control
- T/C (endpoint: mean survival time, dose: 400.0 mg/kg/injection, schedule: Q01DX001 (ip), vehicle: saline with Tween-80): 92 % of control

SMILES: COc1cc2c(cc1OC)C(c1cc(OC)c(OC)c(OC)c1)=NCC2
- T/C [10]: 104 % of control
- T/C [12]: 104 % of control
- T/C [5]: 87 % of control
- T/C (endpoint: mean survival time, dose: 400.0 mg/kg/injection, schedule: Q04DX002 (ip), vehicle: saline with Tween-80): 100 % of control
- T/C [6]: 87 % of control

SMILES: O=C(N=C=S)c1ccccc1
- T/C (endpoint: mean survival time, dose: 100.0 mg/kg/injection, schedule: Q04DX003 (ip), vehicle: other): 90 % of control
- T/C (endpoint: mean survival time, dose: 200.0 mg/kg/injection, schedule: Q04DX003 (ip), vehicle: other): 101 % of control
- T/C (endpoint: mean survival time, dose: 400.0 mg/kg/injection, schedule: Q04DX003 (ip), vehicle: other): 101 % of control

SMILES: CC(C)(C(=O)O)C(=O)O
- T/C [13]: 97 % of control
- T/C (endpoint: mean survival time, dose: 100.0 mg/kg/injection, schedule: Q04DX003 (ip), vehicle: saline): 94 % of control
- T/C (endpoint: mean survival time, dose: 200.0 mg/kg/injection, schedule: Q04DX003 (ip), vehicle: saline): 100 % of control

SMILES: O=C(O)c1ccccc1.[Pb]
- T/C (endpoint: mean survival time, dose: 100.0 mg/kg/injection, schedule: Q01DX001 (ip), vehicle: saline): 94 % of control
- T/C (endpoint: mean survival time, dose: 200.0 mg/kg/injection, schedule: Q01DX001 (ip), vehicle: saline): 102 % of control
- T/C (endpoint: mean survival time, dose: 400.0 mg/kg/injection, schedule: Q01DX001 (ip), vehicle: saline): 96 % of control

SMILES: O=S=NNc1ccccc1
- T/C (endpoint: mean survival time, dose: 12.5 mg/kg/injection, schedule: Q01DX009 (ip), vehicle: saline with Tween-80): 108 % of control
- T/C (endpoint: mean survival time, dose: 25.0 mg/kg/injection, schedule: Q01DX009 (ip), vehicle: saline with Tween-80): 102 % of control
- T/C [1]: 88 % of control and 90 % of control
- T/C [3]: 95 % of control
- T/C [5]: 89 % of control

SMILES: N#CCc1nn(C2OC(CO)C(O)C2O)nc1C(N)=O (configuration not stated)
- T/C (endpoint: median survival time, dose: 8.5 mg/kg/injection, schedule: Q01DX005 (ip), vehicle: water): 103 % of control
- T/C (endpoint: median survival time, dose: 17.0 mg/kg/injection, schedule: Q01DX005 (ip), vehicle: water): 103 % of control
- T/C (endpoint: median survival time, dose: 34.0 mg/kg/injection, schedule: Q01DX005 (ip), vehicle: water): 100 % of control
- T/C (endpoint: median survival time, dose: 38.0 mg/kg/injection, schedule: Q01DX005 (ip), vehicle: water): 97 % of control
- T/C (endpoint: median survival time, dose: 136.0 mg/kg/injection, schedule: Q01DX005 (ip), vehicle: water): 100 % of control

SMILES: O=C(CC(NC(=O)OCc1ccccc1)C(=O)OCc1ccccc1)OCc1ccccc1 (configuration not stated)
- T/C [2]: 106 % of control
- T/C [3]: 92 % of control
- T/C [4]: 98 % of control
- T/C [5]: 91 % of control
- T/C [14]: 97 % of control
- T/C [6]: 92 % of control

SMILES: O=C(Nc1ccc(Cl)c(Cl)c1)C(Cl)(Cl)Cl
- T/C (endpoint: mean survival time, dose: 100.0 mg/kg/injection, schedule: Q01DX009 (ip), vehicle: saline + alcohol): 91 % of control
- T/C (endpoint: mean survival time, dose: 200.0 mg/kg/injection, schedule: Q01DX009 (ip), vehicle: saline + alcohol): 89 % of control
- T/C (endpoint: mean survival time, dose: 400.0 mg/kg/injection, schedule: Q01DX009 (ip), vehicle: saline + alcohol): 91 % of control

SMILES: CN(C)C1c2ccccc2-c2ccc(NC(=O)C(F)(F)F)cc21 (configuration not stated)
- T/C (endpoint: mean survival time, dose: 50.0 mg/kg/injection, schedule: Q01DX001 (ip), vehicle: carboxymethylcellulose (CMC)): 107 % of control
- T/C (endpoint: mean survival time, dose: 100.0 mg/kg/injection, schedule: Q01DX001 (ip), vehicle: carboxymethylcellulose (CMC)): 92 % of control
- T/C (endpoint: mean survival time, dose: 200.0 mg/kg/injection, schedule: Q01DX001 (ip), vehicle: carboxymethylcellulose (CMC)): 95 % of control
- T/C (endpoint: mean survival time, dose: 400.0 mg/kg/injection, schedule: Q01DX001 (ip), vehicle: carboxymethylcellulose (CMC)): 113 % of control

SMILES: ClCc1cnc[nH]1
- T/C (endpoint: mean survival time, dose: 100.0 mg/kg/injection, schedule: Q04DX002 (ip), vehicle: saline): 103 % of control
- T/C (endpoint: mean survival time, dose: 200.0 mg/kg/injection, schedule: Q04DX002 (ip), vehicle: saline): 96 % of control
